Experimental data published in paper PMC9080489, “Synthesis and biological evaluation of 2-aryl-benzimidazole derivatives of dehydroabietic acid as novel tubulin polymerization inhibitors” (RSC Advances, 2018).

Experiments:
SMMC-7721 cells [1] = assay: JC-1 mitochondrial membrane potential assay; type: cell-based, human; conditions: 24 h, control 6.47%
Excerpt: As the most important organelle, mitochondria play key roles not only on supplying metabolic energy in the form of ATP, but also on regulating the signal transmission during the apoptosis of cancer cells.[46] Besides, the mitochondrial dysfunction can be aroused under high ROS exposure, leading to the collapse of mitochondrial membrane potential (ΔΨm), which is a characteristic phenomenon of early apoptosis.[47] In order to further investigate the apoptosis-inducing effect of target compound 6j, mitochondrial membrane potential changes were detected using the fluorescent probe JC-1. As a lipophilic cationic dye, JC-1 can easily pass through the plasma membrane into cells and accumulates in actively respiring mitochondria. In control cells, JC-1 can form aggregates in mitochondrial matrix and present high red fluorescence. However, in apoptotic cells whose mitochondrial potential has collapsed, JC-1 exists in cytosol as a monomer which emits green fluorescence. SMMC-7721 cells treated with different concentrations (0, 0.1, 0.2, 0.5, 1.0 and 2.0 μM) of compound 6j for 24 h were stained with JC-1 and then subjected to flow cytometry.
The JC-1 mitochondrial membrane potential assay kit (Keygene Biotech., China) was employed to measure mitochondrial depolarization in SMMC-7721 cells. Briefly, cells cultured in six-well plates after indicated treatments were incubated with an equal volume of JC-1 staining solution (5 μg mL^−1) at 37 °C for 20 min and rinsed twice with PBS. Mitochondrial membrane potentials were monitored by determining the relative amounts of dual emissions from mitochondrial JC-1 monomers or aggregates using flow cytometry (Becton-Dickinson FACSCalibur, New York, USA). Mitochondrial depolarization is indicated by an increase in the percentage of cells with low ΔΨm (green fluorescence, lower right quadrant) compared with cells with high ΔΨm (red fluorescence, upper right quadrant).

[2] = tested on: human breast cancer cell line (MDA-MB-231); assay: MTT cytotoxic assay, MDA-MB-231; type: cell-based; conditions: MDA-MB-231, MTT, 48 h exposure, read-out: IC50 MDA-MB-231
Description: (§1) The in vitro antiproliferative activity of DAA derivatives (1–5, 6a–k, 7a–k) were evaluated by MTT assay against human hepatocarcinoma cell line (SMMC-7721), human breast cancer cell line (MDA-MB-231), human cervical carcinoma cell line (HeLa), mouse colon cancer cell line (CT-26) and human normal hepatocyte cell line (QSG-7701). Nocodazole was co-assayed as the positive control and DMEM culture medium containing 0.1% DMSO was used as negative control. The results of the tested compounds expressed as IC50 values (concentration required to inhibit tumor cell proliferation by 50%) were presented in Table 1.
(§2) The human hepatocarcinoma cell line (SMMC-7721), human breast cancer cell line (MDA-MB-231), human cervical carcinoma cell line (HeLa), mouse colon cancer cell line (CT-26) and human normal hepatocyte cells (QSG-7701) used in this study were all obtained from Keygene Biotech., China. These cell lines were maintained in DMEM medium supplemented with 10% heat-inactivated fetal bovine serum in a humidified atmosphere of 5% CO2 at 37 °C.
(§3) The in vitro cytotoxic activities of the benzimidazole derivatives of dehydroabietic acid were evaluated against tested cell lines via the MTT colorimetric method. Briefly, different tumor cells were grown in DMEM medium supplemented with 10% fetal bovine serum, penicillin (100 U mL^−1), and streptomycin (50 μg mL^−1). Cells were harvested at log phase of growth and seeded in 96-well plates (100 μL per well at a density of 2 × 10^5 cells mL^−1). After 24 h incubation at 37 °C and 5% CO2 to allow cell attachment, cultures were exposed to various concentrations of the isolated compounds for 48 h. Finally, MTT solution (2.5 mg mL^−1 in PBS) was added (40 μL per well). Plates were further incubated for 4 h at 37 °C, and the formazan crystals formed were dissolved by adding 150 μL per well of DMSO. Absorption at 570 nm was measured with an ELISA plate reader. The results were expressed as IC50 values with standard deviations, which was defined as the concentration at which 50% survival of cells was discerned. Nocodazole was co-assayed as positive control.

SMMC-7721 cells [3] = assay: Cell cycle analysis (PI staining, flow cytometry); type: cell-based, human; conditions: 24 h; for percentage of cells in G2/M phase: control 8.86%; for percentage of cells in S phase: control 25.21%; for percentage of cells in G0/G1 phase: control 65.93%
Description: Flow cytometry was used to analyze the effects of the DAA derivative on cell growth and division. SMMC-7721 cells were treated with different concentrations of compound 6j (0, 0.1, 0.2 and 0.5 μM) for 24 h. Cell cycle distribution was investigated by flow cytometric analysis after staining the DNA of the treated cells with propidium iodide (PI).
For the flow cytometric analysis of the DNA content, SMMC-7721 cells were seeded in 6-well plates (5 × 10^5 cells per well) and incubated in the absence or presence of compound 6j at indicated concentrations for 24 h. After treatment, cells were detached with 0.25% trypsin, harvested by centrifugation, washed twice with ice-cold PBS and then fixed and permeabilized with ice-cold ethanol at 4 °C overnight. Ethanol was removed by centrifugation, and the cells were washed twice and resuspended in ice-cold PBS. After this, the cells were treated with 100 μL of 100 μg mL^−1 RNAse A at 37 °C for 30 min, followed by incubation with 400 μL of 1 mg mL^−1 DNA staining solution propidium iodide (PI) in the dark at 4 °C for 30 min. The samples were then analyzed for their DNA content by flow cytometry (Becton-Dickinson FACSCalibur, New York, USA).

[4] = tested on: human cervical carcinoma cell line (HeLa); assay: MTT cytotoxic assay, HeLa; type: cell-based; conditions: MTT, 48 h exposure, read-out: IC50 HeLa
Description: as §1, §2, §3

[5] = tested on: intracellular microtubule system of SMMC-7721 cells; assay: Immunofluorescence staining of microtubule network; type: cell-based, human; conditions: 24 h (Fig. 4 legend)
Description: Since the tubulin polymerization inhibitory effect of compound 6j has been verified, we subsequently performed the immunofluorescent staining assay to observe its effect on the intracellular microtubule system of SMMC-7721 cells.
[…] After being washed with phosphate buffer solution (PBS) and fixed in 4% paraformaldehyde for 15 min, the cells were permeabilized with 0.5% Triton X-100 for 15 min and blocked for 30 min with 10% goat serum. Then, the cells were incubated with mouse anti-tubulin antibody (ZSGB-Bio, China) at 4 °C overnight and incubated with goat anti-mouse IgG/Alexa-Fluor 488 antibody (ZSGB-Bio, China) at room temperature for 1 h. After the nuclei were stained with Hoechst 33258 (Beyotime Biotech., China) in the dark at room temperature for 30 min, the samples were immediately visualized on a Zeiss LSM 570 laser scanning confocal microscope (Carl Zeiss, Germany).

`COC(=O)[C@]1(C)CCC[C@]2(C)c3cc(Br)c4nc(-c5ccc6[nH]ccc6c5)[nH]c4c3CCC12` (stereo partly drawn) [Compound 6j, Methyl 2′-(1H-indol-5-yl)-12-bromo-13,14-imidazolyl-deisopropyl-dehydroabietate] was tested, and the “percentage of cells with low ΔΨm (lower right quadrant)” value (SMMC-7721 cells [1]; 0.1 μM) was 11.35%, the “percentage of cells with low ΔΨm (lower right quadrant)” value (SMMC-7721 cells [1]; 0.2 μM) was 15.66% and the “percentage of cells with low ΔΨm (lower right quadrant)” value (SMMC-7721 cells [1]; 0.5 μM) was 20.16%. The “percentage of cells with low ΔΨm (lower right quadrant)” value (SMMC-7721 cells [1]; 1.0 μM) was 31.30%, the “percentage of cells with low ΔΨm (lower right quadrant)” value (SMMC-7721 cells [1]; 2.0 μM) was 53.12% and the IC50 [2] was 190 ± 40 nM. The “percentage of cells in G2/M phase” value (SMMC-7721 cells [3]; 0.1 μM) was 13.65%, the “percentage of cells in S phase” value (SMMC-7721 cells [3]; 0.1 μM) was 29.52% and the “percentage of cells in G0/G1 phase” value (SMMC-7721 cells [3]; 0.1 μM) was 56.83%. For the same compound, the “percentage of cells in G2/M phase” value (SMMC-7721 cells [3]; 0.2 μM) was 18.37%, the “percentage of cells in S phase” value (SMMC-7721 cells [3]; 0.2 μM) was 29.34% and the “percentage of cells in G0/G1 phase” value (SMMC-7721 cells [3]; 0.2 μM) was 52.28%. The “percentage of cells in G2/M phase” value (SMMC-7721 cells [3]; 0.5 μM) was 26.42%, the “percentage of cells in S phase” value (SMMC-7721 cells [3]; 0.5 μM) was 24.27% and the “percentage of cells in G0/G1 phase” value (SMMC-7721 cells [3]; 0.5 μM) was 49.30%. For the same compound, the IC50 [4] was 230 ± 50 nM, the “effect on the microtubule network” value ([5]; 0.5 μM) was “most microtubule networks disappeared” and the “effect on the microtubule network” value ([5]; 0.1–0.5 μM) was “the meshy microtubule networks shrank around the nuclei in a dose-dependent manner”.
